Experiments:
Format in all cases: physicochemical
[1] = Solubility test (溶解度试验); conditions: stated in words; values of table 2 missing in this copy
[2] = Strong light (4500lx±500lx) stability
[3] = High temperature (60℃) stability
[4] = High humidity (RH92.5%) stability

- solubility [1]: 较好的溶解性
- crystal form stability (X-ray powder diffraction result) [2]: X-射线粉末衍射结果均未发生变化,仍保持原本晶型
- crystal form stability (X-ray powder diffraction result) [3]: X-射线粉末衍射结果均未发生变化,仍保持原本晶型
- crystal form stability (X-ray powder diffraction result) [4]: X-射线粉末衍射结果均未发生变化,仍保持原本晶型
SMILES: COc1cc(C(=O)OCCCCNC(=N)N)cc(OC)c1O [盐酸益母草碱α晶型, 盐酸益母草碱]

From CN108129355A, “一种盐酸益母草碱α晶型及其制备方法和应用” (Jingde Xinxing Biological Technology Co Ltd, priority 2018, dated 2018)
